Measurements reported in paper PMC3705751 (Evidence-based Complementary and Alternative Medicine : eCAM, 2013).
Read-outs that look alike come from different tables or passages of the source.

Legend:
Cytotoxic assay (MTT) = settings: dog, MDCK cells
[1] = test system: pandemic 2009 H1N1 influenza A virus; experiment: Plaque inhibition assay in MDCK cells; type: cell-based, Pandemic influenza A/Taiwan/CMUH/2009 (H1N1); settings: 72 h, read-out: Plaque inhibition IC50 values, Pandemic 2009 H1N1
[2] = test system: seasonal 2007 H1N1 influenza A virus; experiment: microbe, parasite or virus in culture; type: cell-based; settings: read-out: Plaque inhibition IC50 values, Seasonal 2007 H1N1
[3] = target: NA of PR8 H1N1 influenza A virus (Influenza A virus, UniProt P03468); experiment: NA enzymatic activity inhibition, fluorometric MUNANA assay; type: biochemical, Influenza A/Puerto Rico/8/34 (H1N1)
Sequence of NA of PR8 H1N1 influenza A virus (P03468 whole entry): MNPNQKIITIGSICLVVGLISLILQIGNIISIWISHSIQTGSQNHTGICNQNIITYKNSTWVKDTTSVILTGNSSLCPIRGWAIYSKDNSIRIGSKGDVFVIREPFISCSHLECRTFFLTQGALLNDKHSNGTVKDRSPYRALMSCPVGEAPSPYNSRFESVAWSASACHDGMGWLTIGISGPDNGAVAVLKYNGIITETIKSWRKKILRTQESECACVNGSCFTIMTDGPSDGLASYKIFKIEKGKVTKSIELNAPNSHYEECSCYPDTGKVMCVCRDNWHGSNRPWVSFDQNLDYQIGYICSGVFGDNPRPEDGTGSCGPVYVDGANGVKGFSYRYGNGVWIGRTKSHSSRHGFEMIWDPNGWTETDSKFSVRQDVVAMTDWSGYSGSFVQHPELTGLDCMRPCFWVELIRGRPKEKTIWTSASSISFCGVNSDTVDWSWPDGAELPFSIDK
Excerpt: Pandemic influenza A/Taiwan/CMUH/2009 (H1N1) (pandemic 2009 H1N1 virus), seasonal influenza A/Taiwan//CMUH/2007 (H1N1), 2009 (H1N1), and 2009 (H3N2) (seasonal 2007 H1N1, 2009 H1N1, and 2009 H3N2 influenza A viruses) were isolated in the clinical virology laboratory of China Medical University Hospital, Taiwan. Influenza A/Puerto Rico/8/34 (H1N1) (PR8 H1N1 virus) was kindly provided by Dr. Wei-Li Hsu (Institute of Microbiology and Public Health, National Chung-Hsing University). HA subtype of all influenza A viruses used was confirmed by RT-PCR or real-time RT-PCR with specific primers (see Supplementary Table 1 in the Supplementary Material available online at http://dx.doi.org/10.1155/2013/750803).
Fluorometric substrate 2′-(4-methylumbelliferyl)-α-D-N-acetylneuraminic acid (MUNANA; Sigma) was used to determine NA activity as described in a prior report. To determine NA activity of pandemic 2009 H1N1 and seasonal 2007 H1N1 viruses, serial 10-fold dilution of viruses (10^6 PFU/mL) was added to the wells of a 96-well plate, mixed with MUNANA solution at final concentration of 300 μM, and then incubated for 1 h at 37°C. Relative NA enzymatic activity was determined as the fluorescent intensity at a 360 nm excitation and a 460 nm emission wavelength (Multidetection Fluorescence-Luminescence Microplate Reader). […] Concentration of each extract or flavonoid showing 50% inhibitory effect (IC50) compared to the control with no inhibitor was determined by computer program (provided by John Spouge, National Institutes of Health).

in vitro = settings: dog
[4] = flavonoids, MUNANA substrate, read-out: NA inhibition IC50 values, PR8 H1N1

Molecule	CC50 at 48 h (Cytotoxic assay (MTT)) [µM]	IC50 [1] [µM]	IC50 ([2]; flavonoids, MDCK cells, 3 days) [µM]	IC50 [3] [µM]	CC50 (in vitro) [µM]	IC50 ([2]; Influenza A virus, MDCK, 72 h) [µM]	IC50 [3, 4] [µM]	CC50 MDCK cells (MDCK cells) [µg/mL]
O=c1cc(-c2ccc(O)cc2)oc2cc(O)cc(O)c12 [Apigenin]	218.34 ± 0.11	94.16 ± 0.047	119.61 ± 0.032	81.3				
O=c1cc(-c2ccccc2)oc2cc(O)cc(O)c12 [Chrysin]		> 200			266.66 ± 0.077	> 200	132	
MeOH								923.12 ± 0.017
Chloroform								829.77 ± 0.009
O=C(O)[C@H]1O[C@@H](Oc2cc3oc(-c4ccccc4)cc(=O)c3c(O)c2O)[C@H](O)[C@@H](O)[C@@H]1O [Baicalin]		> 0.01			0.015	> 0.01	2.75	
O=c1cc(-c2ccccc2)oc2cc(O)c(O)c(O)c12 [Baicalein]	0.045 ± 0.088	0.02		0.181		0.018		
